Consider six molecules from US20060166992A1, “Heterocyclically substituted imidazotriazines” (Bayer Healthcare A G, priority 2002, published 2006).

Assay [1] deals with T1, PDE 10A (Homo sapiens, UniProt Q9Y233).
T1 construct: is expressed recombinantly in full length in Sf9 insect cells; made in house; host or cells: Sf9 insect cells (Bac-to-Bac baculovirus expression system)
The assay is described as follows: Inhibition of PDE 10A (scintillation proximity assay, [3H]cAMP substrate). It is filed as biochemical. The note with it: recombinant full-length PDE 10A expressed in Sf9 insect cells; 60 min at 20° C. On the procedure:
PDE 10A (WO 01/29 199, FIG. 1A) is expressed recombinantly in full length in Sf9 insect cells (Invitrogen, Carlsbad, Calif.) with the aid of the Bac-to-Bac™ Baculovirus expression system from Life Technologies (Gaithersburg, Md.). 48 h after infection, the cells are harvested and suspended in 20 ml (per 11 of culture) of lysis buffer (50 mM tris HCl, pH 7.4, 50 mM NaCl, 1 mM MgCl2, 1.5 mM EDTA, 10% glycerol plus 20 μl of Protease Inhibitor Cocktail Set II [CalBiochem, La Jolla, Calif. USA]). The cells are treated with ultrasound at 4° C. for 1 minute and subsequently centrifuged at 10 000 rpm for 30 minutes at 4° C. The supernatant (PDE 10A preparation) was collected and stored at −20° C.
The test substances are dissolved in 100% DMSO for the determination of their in vitro action on PDE 10A and serially diluted. Typically, dilution series from 200 μM to 1.6 μM are prepared (resulting final concentrations in the test: 4 μM to 0.032 μM). 2 μl of the diluted substance solutions in each case are introduced into the hollows of microtiter plates (Isoplate; Wallac Inc., Atlanta, Ga.). Subsequently, 50 μl of a dilution of the PDE 10A preparation described above are added. The dilution of the PDE 10A preparation is chosen such that during the later incubation less than 70% of the substrate is reacted (typical dilution: 1:10 000; dilution buffer: 50 mM tris/HCl pH 7.5, 8.3 mM MgCl2, 1.7 mM EDTA, 0.2% BSA). The substrate, [5′,8-^3H] adenosine 3′,5′-cyclic phosphate (1 μCi/μl; Amersham Pharmacia Biotech., Piscataway, N.J.) is diluted 1:2000 with assay buffer (50 mM tris/HCl pH 7.5, 8.3 mM MgCl2, 1.7 mM EDTA) to a concentration of 0.0005 μCi/μl. The enzyme reaction is finally started by addition of 50 μl (0.025 μCi) of the diluted substrate. The test batches are incubated for 60 min at 20° C. and the reaction is stopped by addition of 25 μl of a suspension containing 18 mg/ml of Yttrium Scintillation Proximity Beads (Amersham Pharmacia Biotech., Piscataway, N.J.). The microtiter plates are sealed using a film and allowed to stand for 60 min at 20° C. Subsequently, the plates are measured for 30 s per hollow in a Microbeta scintillation counter (Wallac Inc., Atlanta, Ga.). IC50 values are determined by means of graphic plotting of the substance concentration against the percentage inhibition.
The PDE 10A-inhibiting action of the compounds according to the invention may be shown by the following examples: […]
A general note: In a scintillation proximity assay essentially only radioactivity close to the scintillant gives light.

Assay [2] deals with haloperidol catalepsy. The assay is described as follows: Catalepsy test on rats (potentiation of haloperidol catalepsy). The following applies: 3 mg/kg intraperitoneal together with haloperidol (0.3 mg/kg s.c.), significant. It is filed as in vivo.
Method: The period of time which elapses up to the correction of an imposed position can be used as a measure of the intensity of catalepsy.
A low dose of haloperidol (0.3 mg/kg s.c.) is given on its own 30 min before the catalepsy test or administered together with the compound. In order to measure the cataleptic behavior, both forepaws of the rat are put onto a block of wood of 9 cm height and 5.5 cm width×5.5 cm depth. The time which elapses until an animal pulls its forepaws down from the block again is recorded as the duration of catalepsy. All rats are taken from the block of wood after 60 seconds at the latest. The data acquired from each treatment group (10 animals in each case) are analyzed statistically by means of variance analysis (ANOVA).
Assay [3] has as its system haloperidol catalepsy. The following applies: described in EP-A 1 250 923; cited from earlier work.

As usually defined, the IC50 is the concentration at which inhibition is half-maximal.

T1 sequence (Q9Y233 1-779 isoform Q9Y233-1): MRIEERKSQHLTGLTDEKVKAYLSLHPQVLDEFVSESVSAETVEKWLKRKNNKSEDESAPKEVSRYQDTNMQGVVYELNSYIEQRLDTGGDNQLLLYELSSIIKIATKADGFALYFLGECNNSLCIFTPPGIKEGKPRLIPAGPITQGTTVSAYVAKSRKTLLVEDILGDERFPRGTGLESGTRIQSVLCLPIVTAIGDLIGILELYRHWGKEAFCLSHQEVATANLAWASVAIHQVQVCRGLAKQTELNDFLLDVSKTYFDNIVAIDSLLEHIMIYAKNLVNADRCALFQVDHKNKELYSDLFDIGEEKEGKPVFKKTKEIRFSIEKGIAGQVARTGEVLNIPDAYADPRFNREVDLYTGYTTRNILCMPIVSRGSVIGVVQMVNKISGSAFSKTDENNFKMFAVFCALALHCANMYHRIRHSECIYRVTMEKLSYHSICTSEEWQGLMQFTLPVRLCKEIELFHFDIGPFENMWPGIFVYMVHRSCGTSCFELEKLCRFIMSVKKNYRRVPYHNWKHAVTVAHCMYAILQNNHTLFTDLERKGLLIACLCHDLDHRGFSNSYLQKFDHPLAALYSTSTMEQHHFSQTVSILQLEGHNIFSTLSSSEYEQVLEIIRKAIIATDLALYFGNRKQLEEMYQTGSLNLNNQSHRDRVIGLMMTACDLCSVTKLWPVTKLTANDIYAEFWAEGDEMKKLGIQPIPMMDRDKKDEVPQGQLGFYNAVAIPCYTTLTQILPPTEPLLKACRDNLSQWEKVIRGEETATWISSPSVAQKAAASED

`COc1cc(Oc2nc(-c3ccc(C)nc3)nn3c(C)nc(C)c23)cc(OC)c1OC` [Example 9]: the IC50 in assay [1] is 38 nM. In the case of `COc1cc(Oc2nc(-c3cccnc3)nn3c(C(C)C)nc(C)c23)cc(OC)c1OC` [Example 10, 7-isopropyl-5-methyl-2-(3-pyridinyl)-4-(3,4,5-trimethoxyphenoxy)imidazo[5,1-f][1,2,4]triazine], in assay [1], the half-maximal inhibitory concentration (IC50) was determined as 8 nM. As for `COc1cc(Nc2nc(-c3cnc(C)s3)nn3c(C)nc(C)c23)cc(OC)c1OC` [Example 12, 5,7-Dimethyl-2-(2-methyl-1,3-thiazol-5-yl)-N-(3,4,5-trimethoxyphenyl)imidazo-[5,1-f][1,2,4]triazin-4-amine], in assay [1], the IC50 turned out to be 93 nM. As to `COc1cc(Nc2nc(-c3ccncc3)nn3c(C)nc(C)c23)cc(OC)c1OC` [Example 14], the IC50 in assay [1] amounted to 150 nM. `COc1cc(Nc2nc(-c3cccnc3)nn3c(C)nc(C)c23)cc(OC)c1OC` [Example 16]: the “increase in the duration of catalepsy” value in assay [2] was found to be 103%. Also, in assay [1], the 50% inhibitory concentration (IC50) was 30 nM.

Turning to `COc1ccc(Cc2nccc3cc(OC)c(OC)cc23)cc1OC` [papaverine], the “effect on haloperidol catalepsy” value in assay [3] is given as “potentiation of haloperidol catalepsy”.
